Test results reported in ChEMBL document CHEMBL1201862, “PubChem BioAssay data set” (2004).
Values belong to the compound of their own block, whether it stands above or below them. Calls of active or inactive are those of the source.

Assays:
[1] = molecular target: T1, Heat shock factor protein 1 (Mus musculus, UniProt P38532); assay: inhibition of MG132-induced HSE-luciferase signal, confirmation, cell-based, NIH3T3, luminescence, dose retest (AID 2382); assay type: functional;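 further: NIH3T3 fibroblasts with HSF1-driven luciferase reporter stressed by proteasome inhibitor MG132; luminescence from HSF1-driven luciferase expression after 8 hours of MG132 stress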
T1 sequence (P38532 whole entry): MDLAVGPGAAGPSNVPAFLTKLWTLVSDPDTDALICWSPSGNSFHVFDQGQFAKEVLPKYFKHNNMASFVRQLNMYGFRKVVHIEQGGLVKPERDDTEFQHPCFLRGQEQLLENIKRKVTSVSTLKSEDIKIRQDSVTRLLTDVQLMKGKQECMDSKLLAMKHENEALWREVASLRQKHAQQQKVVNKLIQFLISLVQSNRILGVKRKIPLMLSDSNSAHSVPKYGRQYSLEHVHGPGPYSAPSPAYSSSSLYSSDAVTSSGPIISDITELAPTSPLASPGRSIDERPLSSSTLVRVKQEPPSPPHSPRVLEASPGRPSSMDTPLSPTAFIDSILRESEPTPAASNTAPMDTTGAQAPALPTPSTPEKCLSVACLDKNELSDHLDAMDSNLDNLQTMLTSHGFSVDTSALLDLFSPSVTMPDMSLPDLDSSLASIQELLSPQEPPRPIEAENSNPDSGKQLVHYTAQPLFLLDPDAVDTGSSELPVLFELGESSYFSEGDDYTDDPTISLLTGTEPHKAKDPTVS

[2] = molecular target: Scavenger receptor class B member 1 (Mus musculus, UniProt Q61009); assay: inhibitors of SR-BI mediated HDL lipid uptake, dose response, ldlA[mSR-BI] cells, fluorescence, cherry pick (AID 493194); assay type: functional, cell-based;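 further: cellular uptake of fluorescent DiI-labeled HDL measured as cell fluorescence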
Chain of Scavenger receptor class B member 1 (Q61009 whole entry): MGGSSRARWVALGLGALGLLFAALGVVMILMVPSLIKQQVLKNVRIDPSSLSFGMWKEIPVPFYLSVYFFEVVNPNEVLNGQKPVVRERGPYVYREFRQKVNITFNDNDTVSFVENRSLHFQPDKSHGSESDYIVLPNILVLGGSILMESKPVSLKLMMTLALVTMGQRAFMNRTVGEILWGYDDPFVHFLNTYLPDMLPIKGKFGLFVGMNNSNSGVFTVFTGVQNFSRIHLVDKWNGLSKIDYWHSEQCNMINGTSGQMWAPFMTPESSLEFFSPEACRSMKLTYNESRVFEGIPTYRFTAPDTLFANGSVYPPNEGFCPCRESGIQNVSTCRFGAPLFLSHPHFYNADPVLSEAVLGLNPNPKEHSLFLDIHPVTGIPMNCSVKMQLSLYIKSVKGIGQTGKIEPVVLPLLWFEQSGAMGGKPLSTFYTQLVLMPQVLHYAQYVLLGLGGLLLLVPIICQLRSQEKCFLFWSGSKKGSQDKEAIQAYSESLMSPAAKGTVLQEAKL

Trypsin = Trypsin (Sus scrofa, UniProt P00761); assay: porcine trypsin inhibitors, dose response, selectivity assay for Rce1 protease inhibitor project, biochemical, quenched peptide fluorescence, cherry-pick (AID 488789)
Chain of Trypsin (P00761 whole entry): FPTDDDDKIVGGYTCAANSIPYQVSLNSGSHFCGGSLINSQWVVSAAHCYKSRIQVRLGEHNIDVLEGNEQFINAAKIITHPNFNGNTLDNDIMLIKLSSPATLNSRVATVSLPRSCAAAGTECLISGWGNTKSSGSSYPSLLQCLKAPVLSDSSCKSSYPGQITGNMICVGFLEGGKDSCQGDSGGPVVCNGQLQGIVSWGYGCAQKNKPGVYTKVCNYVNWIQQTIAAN

[3] = Cytotoxicity screening for potential Inhibitors of Bacterial Capsule Biogenesis. [Related pubchem assays (depositor defined):AID488970]; assay type: functional
HeLa = assay: HeLa cell cytotoxicity, dose response, cytotoxicity control for MITF activator project, CellTiter-Glo luminescence, cherry-pick samples (AID 540259); assay type: functional, cell-based; conditions: Homo sapiens
Genome polyprotein = Genome polyprotein (dengue virus type 2, UniProt P29990); assay: Dengue-2 NS5 methyltransferase inhibitors, primary screen, biochemical, confirmation dose response (AID 588689); assay type: functional
Chain of Genome polyprotein (P29990 2492-3391 limits assumed): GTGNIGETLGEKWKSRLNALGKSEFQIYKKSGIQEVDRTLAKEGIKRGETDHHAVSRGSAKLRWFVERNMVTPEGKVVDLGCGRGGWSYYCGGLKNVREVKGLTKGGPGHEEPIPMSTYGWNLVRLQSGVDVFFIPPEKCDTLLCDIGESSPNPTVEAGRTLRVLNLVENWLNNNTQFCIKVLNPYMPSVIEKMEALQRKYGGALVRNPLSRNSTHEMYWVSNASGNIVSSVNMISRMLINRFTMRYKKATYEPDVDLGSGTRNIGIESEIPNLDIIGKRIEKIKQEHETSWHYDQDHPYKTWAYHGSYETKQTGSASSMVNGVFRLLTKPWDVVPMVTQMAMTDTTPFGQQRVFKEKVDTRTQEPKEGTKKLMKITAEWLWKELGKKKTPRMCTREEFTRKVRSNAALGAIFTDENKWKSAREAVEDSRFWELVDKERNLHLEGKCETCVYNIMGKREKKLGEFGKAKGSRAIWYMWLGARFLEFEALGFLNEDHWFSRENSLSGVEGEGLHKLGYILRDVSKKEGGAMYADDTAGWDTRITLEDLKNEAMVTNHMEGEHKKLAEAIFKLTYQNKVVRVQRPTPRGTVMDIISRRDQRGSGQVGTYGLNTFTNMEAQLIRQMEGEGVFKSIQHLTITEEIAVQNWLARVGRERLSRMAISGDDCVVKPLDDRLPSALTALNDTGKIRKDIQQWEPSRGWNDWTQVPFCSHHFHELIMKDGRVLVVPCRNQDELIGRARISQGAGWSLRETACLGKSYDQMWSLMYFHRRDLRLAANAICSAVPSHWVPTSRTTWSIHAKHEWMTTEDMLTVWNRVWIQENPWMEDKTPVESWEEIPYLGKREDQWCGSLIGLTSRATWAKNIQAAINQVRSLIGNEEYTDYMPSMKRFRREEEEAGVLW

Vero = Vero cell cytotoxicity, cytotoxicity control for flavivirus capping enzyme inhibitors (AID 588742); assay type: functional; conditions: Chlorocebus sabaeus
[4] = molecular target: T2, Low molecular weight phosphotyrosine protein phosphatase (Homo sapiens, UniProt P24666); assay type: functional; conditions: read-out: IC50_Mean
T2 sequence (P24666 whole entry): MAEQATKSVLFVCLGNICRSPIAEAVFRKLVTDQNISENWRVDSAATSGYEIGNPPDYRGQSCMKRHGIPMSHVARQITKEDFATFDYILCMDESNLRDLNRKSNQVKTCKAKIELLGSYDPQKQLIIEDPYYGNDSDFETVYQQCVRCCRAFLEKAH

[5] = molecular target: T3, Carboxy-terminal domain RNA polymerase II polypeptide A small phosphatase 1 (Homo sapiens, UniProt Q9GZU7); assay: inhibitors of CTDSP1, concentration-response testing, biochemical assay, absorbance-based, actives from ultra-high-throughput screening (AID 540297); assay type: functional
T3 sequence (Q9GZU7 whole entry): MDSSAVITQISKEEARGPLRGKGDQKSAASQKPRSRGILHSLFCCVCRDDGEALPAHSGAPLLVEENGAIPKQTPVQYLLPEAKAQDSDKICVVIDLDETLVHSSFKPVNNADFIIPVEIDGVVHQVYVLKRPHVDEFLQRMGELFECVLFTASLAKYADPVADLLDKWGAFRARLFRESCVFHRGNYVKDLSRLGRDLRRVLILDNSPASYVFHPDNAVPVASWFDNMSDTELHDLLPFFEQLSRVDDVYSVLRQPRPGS

[6] = molecular target: T4, Tyrosine-protein phosphatase non-receptor type 22 (Homo sapiens, UniProt Q9Y2R2); assay: LYP phosphatase inhibition for selectivity, dose response, selectivity assay for LMPTP inhibitor project, biochemical, fluorescence, LYP catalytic domain (AID 652006); assay type: functional; conditions: read-out: IC50_Mean
T4 sequence (Q9Y2R2 whole entry): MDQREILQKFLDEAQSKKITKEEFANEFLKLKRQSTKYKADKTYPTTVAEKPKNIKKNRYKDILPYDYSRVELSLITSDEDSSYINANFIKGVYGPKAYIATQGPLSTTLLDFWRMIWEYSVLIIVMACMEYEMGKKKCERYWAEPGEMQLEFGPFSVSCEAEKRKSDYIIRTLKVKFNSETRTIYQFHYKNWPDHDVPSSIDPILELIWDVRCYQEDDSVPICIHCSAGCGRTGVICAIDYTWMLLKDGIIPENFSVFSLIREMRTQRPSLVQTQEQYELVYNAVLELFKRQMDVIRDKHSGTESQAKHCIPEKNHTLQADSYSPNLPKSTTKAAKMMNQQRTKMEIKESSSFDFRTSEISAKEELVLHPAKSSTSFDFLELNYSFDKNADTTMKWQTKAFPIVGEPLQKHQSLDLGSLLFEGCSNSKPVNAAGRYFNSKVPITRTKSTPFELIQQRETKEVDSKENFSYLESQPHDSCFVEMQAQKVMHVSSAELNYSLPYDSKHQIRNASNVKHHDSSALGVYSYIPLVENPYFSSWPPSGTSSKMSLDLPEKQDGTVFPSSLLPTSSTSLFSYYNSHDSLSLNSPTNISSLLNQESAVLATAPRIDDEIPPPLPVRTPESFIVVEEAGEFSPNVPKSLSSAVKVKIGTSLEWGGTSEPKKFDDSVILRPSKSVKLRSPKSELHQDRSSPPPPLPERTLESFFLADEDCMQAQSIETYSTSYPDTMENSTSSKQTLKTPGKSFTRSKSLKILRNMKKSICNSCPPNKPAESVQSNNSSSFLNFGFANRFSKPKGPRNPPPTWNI

[7] = molecular target: T2, Low molecular weight phosphotyrosine protein phosphatase; assay type: functional; conditions: read-out: IC50_Mean; remark: listed apart in the source
[8] = molecular target: Envelope glycoprotein gp160 (Human immunodeficiency virus 1, UniProt Q6QLK5); assay: inhibitors of HIV fusion peptide binding, primary screen, biochemical, uHTS, fluorescence dequenching (AID 1986)
Chain of Envelope glycoprotein gp160 (Q6QLK5 whole entry, the tested form may be a part): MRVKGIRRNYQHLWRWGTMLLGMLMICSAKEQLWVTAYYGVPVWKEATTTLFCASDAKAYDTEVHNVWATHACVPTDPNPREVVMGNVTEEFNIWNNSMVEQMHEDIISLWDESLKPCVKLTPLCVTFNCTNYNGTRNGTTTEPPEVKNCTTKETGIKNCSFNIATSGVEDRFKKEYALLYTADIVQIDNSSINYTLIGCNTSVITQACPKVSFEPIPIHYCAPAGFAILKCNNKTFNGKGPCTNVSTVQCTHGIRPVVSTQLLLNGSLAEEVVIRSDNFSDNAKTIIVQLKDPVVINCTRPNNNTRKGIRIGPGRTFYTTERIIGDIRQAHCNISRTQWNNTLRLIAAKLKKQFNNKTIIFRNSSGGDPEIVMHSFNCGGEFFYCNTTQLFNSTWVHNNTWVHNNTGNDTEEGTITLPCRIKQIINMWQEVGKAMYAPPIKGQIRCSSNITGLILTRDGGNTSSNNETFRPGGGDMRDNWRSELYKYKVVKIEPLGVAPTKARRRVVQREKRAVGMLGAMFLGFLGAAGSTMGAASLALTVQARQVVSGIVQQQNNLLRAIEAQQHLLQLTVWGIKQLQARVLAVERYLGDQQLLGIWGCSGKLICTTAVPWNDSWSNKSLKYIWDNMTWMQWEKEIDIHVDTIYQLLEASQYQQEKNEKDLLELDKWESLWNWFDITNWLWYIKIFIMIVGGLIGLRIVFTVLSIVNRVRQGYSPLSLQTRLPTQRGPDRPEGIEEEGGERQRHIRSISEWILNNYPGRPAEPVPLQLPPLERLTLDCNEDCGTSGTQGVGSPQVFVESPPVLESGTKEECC

- EC50 [1]: > 195 µM (not active)
- AC50 [2]: 0.05 µM (active)
SMILES: CCOc1ccccc1/C=C/c1onc(C)c1S(=O)(=O)N1CCC(C(=O)NC(C)(C)C)CC1

- AC50 (Trypsin): 12.8 µM (active)
SMILES: Cc1ccc(O)c(CNc2cnc3ccccc3c2)c1

SMILES: CCc1ccc(NC(=O)c2ccc3nc(N)sc3c2)cc1
- CC50 [3]: 54 µM (active)
- AC50 (HeLa): 47.4 µM (active)

SMILES: Cc1c(CCC(=O)O)c(=O)oc2c(C)c3occ(-c4ccc(Cl)cc4)c3cc12
- IC50 (Genome polyprotein): 42.2 µM (active)
- CC50 (Vero): > 40 µM (active)
- IC50 [4]: 8.61 µM (active)
- IC50 [5]: 4.89 µM (active)
- IC50 [6]: 22.4 µM (inactive)
- IC50 [7]: 19.1 µM (active)
- IC50 [8]: 15.1 µM (active)
